Reference: patent US12187713B2, “Immunomodulators, compositions and methods thereof” (Betta Pharmaceuticals Co., Ltd, priority 2019, dated 2025)

Legend:
[1] = Pharmacokinetic Assay, single oral dose 5 mg/kg (Table 12); assay type: in vivo; settings: mouse, plasma concentration, C57 female mice, single oral dose 5 mg/kg
Protocol: Adult C57 female mice were received to single-dose of the test compounds with 15% DMSO, 10% Kolliphor^@HS 15 and 75% saline as excipients, the mice (n=3) were giving oral administration (intragastric administration) with the compounds at a dose of 5 mg/kg. Time of blood collection: 30 min, 2 h, 4 h. approximately 0.1 mL of whole blood was collected from retro-orbital venous plexus, and placed into tubes that contained K2-EDTA as an anticoagulant. The whole blood were centrifuged at 4° C. and 4000 rpm for 10 min. The plasma was transferred into centrifuge tubes, and stored at −20° C. until being analyzed. Concentrations of test compounds in the plasma samples were analyzed with liquid chromatography-tandem mass spectrometry (LC-MS/MS). Plasma concentration-time data of individual animals was analyzed using Microsoft Excel 2010.

PD-1/PD-L1 = PD-1/PD-L1 (Homo sapiens (Human), UniProt Q9NZQ7); assay: PD-1/PD-L1 Binding Assay (Alphascreen)
Outline: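 PD-1/PD-L1 binding detected by anti-6×His acceptor and streptavidin donor beads after 120 min in the dark at 25 °C. Beforehand, the two proteins were incubated 15 min at 25 °C with inhibitor at 0.015–300 nM (1% DMSO). IC50 comes from a log concentration–response curve.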

Sequence of PD-1/PD-L1 (Q9NZQ7 19-238): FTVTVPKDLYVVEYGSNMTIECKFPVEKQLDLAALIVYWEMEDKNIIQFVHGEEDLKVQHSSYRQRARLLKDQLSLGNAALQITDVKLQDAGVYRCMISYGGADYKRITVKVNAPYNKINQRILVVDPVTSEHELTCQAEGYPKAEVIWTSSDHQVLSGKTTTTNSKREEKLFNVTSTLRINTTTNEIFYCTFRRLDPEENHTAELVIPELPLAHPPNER

Row | SMILES | concentration at 0.5 h [1] | concentration at 2 h [1] | concentration at 4 h [1] | IC50 (PD-1/PD-L1; numeric values) | IC50 (PD-1/PD-L1; range symbols)
1 | Cc1c(-c2ccc(CN3CCCC3)c(C#N)c2)cccc1-c1cccc(-c2nc3cc(CN4CCC[C@H]4C(=O)O)c(OC(F)F)cc3o2)c1C [Example 245, ((2-(3″-cyano-2,2′-dimethyl-4″-(pyrrolidin-1-ylmethyl)-[1,1′:3′,1″-terphenyl]-3-yl)-6-(difluoromethoxy)benzo[d]oxazol-5-yl)methyl)-L-proline] | 101 ng/mL | 237 ng/mL | 191 ng/mL | 3.8 nM | –
2 | Cc1c(-c2nc3cc(CN4CCC[C@H]4C(=O)O)c(OC(F)F)cc3o2)cccc1-c1cccc(-c2ccc(CN3CCCC3)s2)c1C [Example 280, ((6-(difluoromethoxy)-2-(2,2′-dimethyl-3′-(5-(pyrrolidin-1-ylmethyl)thiophen-2-yl)-[1,1′-biphenyl]-3-yl)benzo[d]oxazol-5-yl)methyl)-L-proline] | 33.6 ng/mL | 171 ng/mL | 113 ng/mL | 5.7 nM | –
3 | Cc1c(-c2ccc(CN3CC(C)(C)C3)c(F)c2)cccc1-c1cccc(-c2nc3cc(CN4CCC[C@H]4C(=O)O)c(OC(F)F)cc3o2)c1C [Example 237, ((6-(difluoromethoxy)-2-(4″-((3,3-dimethylazetidin-1-yl)methyl)-3″-fluoro-2,2′-dimethyl-[1,1′:3′,1″-terphenyl]-3-yl)benzo[d]oxazol-5-yl)methyl)-L-proline] | 58.5 ng/mL | 178 ng/mL | 186 ng/mL | 2.7 nM | –
4 | Cc1c(-c2nc3cc(CN4CCOCC4)c(OC(F)F)cc3o2)cccc1-c1cccc(-c2nc3cc(CN4CCC[C@H]4C(=O)O)c(OC(F)F)cc3o2)c1C [Example 13, ((6-(difluoromethoxy)-2-(3′-(6-(difluoromethoxy)-5-(morpholinomethyl)benzo[d]oxazol-2-yl)-2,2′-dimethyl-[1,1′-biphenyl]-3-yl)benzo[d]oxazol-5-yl)methyl)-L-proline] | 79.3 ng/mL | 241 ng/mL | 301 ng/mL | 26 nM | –
5 | Cc1c(-c2nc3cc(CN4CCC[C@H]4C(=O)O)c(OC(F)F)cc3o2)cccc1-c1cccc(-c2nc3cc(CN(C)CC#N)cc(C#N)c3o2)c1C [Example 136, ((2-(3′-(7-cyano-5-(((cyanomethyl) (methyl)amino)methyl)benzo [d]oxazol-2-yl)-2,2′-dimethyl-[1,1′-biphenyl]-3-yl)-6-(difluoromethoxy)benzo[d]oxazol-5-yl)methyl)-L-proline] | 673 ng/mL | 736 ng/mL | 545 ng/mL | – | 0.1 to 5 nM
6 | COc1nc(-c2cccc(-c3cccc(-c4nc5cc(CN6CCC[C@H]6C(=O)O)c(OC(F)F)cc5o4)c3C)c2C)cnc1CN1CC[C@@H](C)C1 [Example 286, ((6-(difluoromethoxy)-2-(3′-(6-methoxy-5-(((R)-3-methylpyrrolidin-1-yl)methyl)pyrazin-2-yl)-2,2′-dimethyl-[1,1′-biphenyl]-3-yl)benzo[d]oxazol-5-yl)methyl)-L-proline] | 20.5 ng/mL | 73.8 ng/mL | 52.2 ng/mL | – | 0.1 to 5 nM
7 | Cc1c(-c2nc3cc(CN4CCN(C)C(C)C4)c(OC(F)F)cc3o2)cccc1-c1cccc(-c2nc3cc(CN4CCC[C@H]4C(=O)O)c(OC(F)F)cc3o2)c1C (stereo partly drawn) [Example 23, ((6-(difluoromethoxy)-2-(3′-(6-(difluoromethoxy)-5-((3,4-dimethylpiperazin-1-yl)methyl)benzo[d]oxazol-2-yl)-2,2′-dimethyl-[1,1′-biphenyl]-3-yl)benzo[d]oxazol-5-yl)methyl)-L-proline] | 46.2 ng/mL | 148 ng/mL | 94.7 ng/mL | 7.7 nM | –
8 | Cc1c(-c2nc3c(o2)CCOC3)cccc1-c1cccc(-c2nc3cc(CN4CCC[C@H]4C(=O)O)c(OC(F)F)cc3o2)c1C [Example 203, ((6-(difluoromethoxy)-2-(3′-(6,7-dihydro-4H-pyrano[3,4-d]oxazol-2-yl)-2,2′-dimethyl-[1,1′-biphenyl]-3-yl)benzo[d]oxazol-5-yl)methyl)proline] | 819 ng/mL | 1030 ng/mL | 833 ng/mL | 12 nM | –
9 | COc1nc(-c2cccc(-c3cccc(-c4nc5cc(CN6CCC[C@H]6C(=O)O)c(OC(F)F)cc5o4)c3C)c2C)ccc1CN1CCC(C)(C)C1 [Example 294, ((6-(difluoromethoxy)-2-(3′-(5-((3,3-dimethylpyrrolidin-1-yl)methyl)-6-methoxypyridin-2-yl)-2,2′-dimethyl-[1,1′-biphenyl]-3-yl)benzo[d]oxazol-5-yl)methyl)-L-proline] | 80.4 ng/mL | 193 ng/mL | 186 ng/mL | – | 0.1 to 5 nM
10 | Cc1c(-c2ccc(CN3CC[C@H](COCc4ccccc4)C3)c(F)c2)cccc1-c1cccc(-c2nc3cc(CN4CCC[C@H]4C(=O)O)c(OC(F)F)cc3o2)c1C [Example 252, ((2-(4″-(((S)-3-((benzyloxy)methyl)pyrrolidin-1-yl)methyl)-3″-fluoro-2,2′-dimethyl-[1,1′:3′,1″- terphenyl]-3-yl)-6-(difluoromethoxy)benzo[d]oxazol-5-yl)methyl)proline] | 694 ng/mL | 2870 ng/mL | 4150 ng/mL | – | 0.1 to 5 nM
11 | Cc1c(-c2ccc(CN3CC[C@@H](c4ccccc4)C3)c(F)c2)cccc1-c1cccc(-c2nc3cc(CN4CCC[C@H]4C(=O)O)c(OC(F)F)cc3o2)c1C [Example 248, ((6-(difluoromethoxy)-2-(3″-fluoro-2,2′-dimethyl-4″-(((S)-3-phenylpyrrolidin-1-yl)methyl)-[1,1′:3′,1″-terphenyl]-3-yl)benzo[d]oxazol-5-yl)methyl)proline] | 89 ng/mL | 271 ng/mL | 369 ng/mL | – | 5 to 50 nM
12 | Cc1c(-c2nc3cc(CN4CCC[C@H]4C(=O)O)c(OC(F)F)cc3o2)cccc1-c1cccc(-c2nc3cc(CN4CC(F)C(F)C4)cc(C#N)c3o2)c1C (stereo partly drawn) [Example 164, ((2-(3′-(7-cyano-5-((3,4-difluoropyrrolidin-1-yl)methyl)benzo [d]oxazol-2-yl)-2,2′-dimethyl-[1,1′-biphenyl]-3-yl)-6-(difluoromethoxy)benzo[d]oxazol-5-yl)methyl)-L-proline] | 294 ng/mL | 877 ng/mL | 853 ng/mL | – | 5 to 50 nM
13 | Cc1c(-c2nc3cc(CN4CCC[C@H]4C(=O)O)c(OC(F)F)cc3o2)cccc1-c1cccc(-c2nc3cc(CN4CCC(C#N)C4)cc(C#N)c3o2)c1C (stereo partly drawn) [Example 142, ((2-(3′-(7-cyano-5-((3-cyanopyrrolidin-1-yl)methyl)benzo[d]oxazol-2-yl)-2,2′-dimethyl-[1,1′-biphenyl]-3-yl)-6-(difluoromethoxy)benzo[d]oxazol-5-yl)methyl)-L-proline] | 211 ng/mL | 243 ng/mL | 171 ng/mL | – | 0.1 to 5 nM
14 | Cc1c(-c2nc3cc(CNCC(O)C(F)(F)F)c(OC(F)F)cc3o2)cccc1-c1cccc(-c2nc3cc(CN4CCC[C@H]4C(=O)O)c(OC(F)F)cc3o2)c1C (stereo partly drawn) [Example 22, ((6-(difluoromethoxy)-2-(3′-(6-(difluoromethoxy)-5-(((3,3,3-trifluoro-2-hydroxypropyl)amino)methyl)benzo[d]oxazol-2-yl)-2,2′-dimethyl-[1,1′-biphenyl]-3-yl)benzo[d]oxazol-5-yl)methyl)-L-proline] | 68.6 ng/mL | 155 ng/mL | 81.1 ng/mL | 25 nM | –
15 | COc1nc(-c2cccc(-c3cccc(-c4nc5cc(CN6CCC[C@H]6C(=O)O)c(OC(F)F)cc5o4)c3C)c2C)cnc1CN1CCCC1 [Example 285, ((6-(difluoromethoxy)-2-(3′-(6-methoxy-5-(pyrrolidin-1-ylmethyl)pyrazin-2-yl)-2,2′-dimethyl-[1,1′-biphenyl]-3-yl)benzo[d]oxazol-5-yl)methyl)-L-proline] | 39.1 ng/mL | 80 ng/mL | 41.8 ng/mL | – | 0.1 to 5 nM
16 | Cc1c(-c2ccc3c(c2)CCNC3)cccc1-c1cccc(-c2nc3cc(CN4CCC[C@H]4C(=O)O)c(OC(F)F)cc3o2)c1C [Example 288, ((6-(difluoromethoxy)-2-(2,2′-dimethyl-3′-(1,2,3,4-tetrahydroisoquinolin-6-yl)-[1,1′-biphenyl]-3-yl)benzo[d]oxazol-5-yl)methyl)-L-proline] | 8.36 ng/mL | 25.4 ng/mL | 9.68 ng/mL | 1.5 nM | –
17 | Cc1c(-c2nc3cc(CN4CCC(F)C4)c(OC(F)F)cc3o2)cccc1-c1cccc(-c2nc3cc(CN4CCC[C@H]4C(=O)O)c(OC(F)F)cc3o2)c1C (stereo partly drawn) [Example 10, ((6-(difluoromethoxy)-2-(3′-(6-(difluoromethoxy)-5-((3-fluoropyrrolidin-1-yl)methyl)benzo[d]oxazol-2-yl)-2,2′-dimethyl-[1,1′-biphenyl]-3-yl)benzo[d]oxazol-5-yl)methyl)-L-proline] | 80.9 ng/mL | 221 ng/mL | 214 ng/mL | 19 nM | –
